Measured values published in patent EP4595976A1, “COMPOSITION FOR TREATING CANCER CONTAINING HISTONE DEACETYLASE INHIBITOR, AND ANTICANCER ADJUVANT FOR CANCER IMMUNOTHERAPY” (Samsung Life Public Welfare Foundation, priority 2022, dated 2024).

Experiments:
DLD-1 = assay: IC50 concentration at which 50% of cells are dead, inhibitor treatment for 48 hours; assay type: cell-based; settings: Homo sapiens, Table 3, DLD-1 (MSI), read-out: IC50(mean±SD)
Description: (§1) The IC50 concentration, which is the concentration at which 50% of cells are dead, was obtained by treating each cell line with an inhibitor at different concentrations for 48 hours and then determining the concentrations at which 50% of the cells were dead. Especially, the results obtained by treating various MSS cell lines (SW620, LS513, HT29, and CT26) with HDAC6i are shown in Table 4 below.

SW620 = assay: as above; assay type: cell-based; settings: Homo sapiens, SW-620, Table 3, SW620 (MSS), read-out: IC50(mean±SD)
Description: as §1

LS513 = assay: as above; assay type: cell-based; settings: Homo sapiens, LS-513, Table 3, LS513 (MSS), read-out: IC50(mean±SD)
Description: as §1

PD-L1 = PD-L1 expression (real-time PCR, western blot) in colorectal cell lines 48 hours after HDAC inhibitor treatment; assay type: cell-based; settings: for PD-L1 expression: IC50 and 1/2 IC50, 48 hours, FIG. 2; for PD-L1 expression at the RNA and protein levels: depending on the concentration
Description: The HDAC3 inhibitor experiment was conducted by harvesting cells 48 hours after the treatment at each inhibitor concentration and obtaining RNA and proteins. RGFP966 (S7229) purchased from SellekChem was used as an HDAC3 inhibitor. Specifically, SW620, LS513, DLD-1, CT26, and MC38 were individually cultured, and the experiments were conducted using the IC50 and 1/2 IC50 concentration on the basis of the previously determined IC50 concentration. RNA and protein samples were collected 48 hours after RGFP966 treatment. The RNA samples were isolated using the TRIzol, isopropanol, and chloroform, and the protein samples were collected by lysis with a lysis buffer (Roche, 4719956001). RNA was synthesized into cDNA using a cDNA synthesis kit (Bioneer, K-2044-B), and real-time PCR was performed using a method according to SYBR (Applied Biosystems, 4367659). Proteins were quantified using the Bradford assay (Bio-Rad, 50000006), and subjected to loading, transfer, blocking (3% skim milk; BD, 232100), primary antibody (24 h, 4°C), and secondary antibody sequentially, thereby developing PD-L1.
The HDAC6 inhibitor experiment was conducted by the same method as in the HDAC3 inhibitor experiment of Experimental Example 3, and Nexturastat A HDAC6 selective inhibitor purchased from SellekChem was used as an HDAC6 inhibitor.
The HDAC8 inhibitor experiment was conducted by the same method as in the HDAC3 inhibitor experiment of Experimental Example 3, and PCI-34051 HDAC8 selective inhibitor purchased from SellekChem was used as an HDAC8 inhibitor.
The HDAC6 and HDAC8 inhibitor experiment was conducted by harvesting cells 48 hours after the treatment and then obtaining RNA and proteins.

CT26 [1] = assay: IC50 concentration at which 50% of cells are dead, inhibitor treatment for 48 hours; assay type: cell-based; settings: Mus musculus; Table 4; CT26, MSS (48hr); read-out: IC50(mean±SD)
Description: as §1

HT29 = assay: as above; assay type: cell-based; settings: Homo sapiens, HT-29; Table 4; HT29, MSS (48hr); read-out: IC50(mean±SD)
Description: as §1

CT26 [2] = assay: Animal experiment using HDAC6 inhibitor with or without anti-PD-L1 antibody, CT26 tumors; assay type: in vivo; settings: during treatment with HDAC6 inhibitor; FIG. 9D
Description: The animal experiment using an HDAC6 inhibitor was conducted using a total of three groups, a control group (control), an HDAC6i (Next A) group, and an HDAC6i (Next A)+anti-PD-L1 group. Nexturastat A (SellekChem) was used as HDAC6i (HDAC6 inhibitor), and #BE0101(Bioxcell) was used as an anti-PD-L1 antibody. CT26 (1x10^6) cells and BALB/C mice were used. Three mice for the control group, three mice for the HDAC6i group, and four mice for the HDAC6i+anti-PD-L1 group were used.
• HDAC6i group: HDAC6i 20 mpk(mg/kg) intraperitoneally injected daily • HDAC6i+anti-PD-L1 group: HDAC6i 20 mpk intra peritoneally injected every day and anti-PD-L1 antibody 10 mpk intra peritoneally injected three times per week.
In addition, paraffin blocks of tumor tissues were prepared for histological staining, and subjected to H&E and TUNEL assay in order to investigate cell death. […]
Additionally, the expression of related genes was examined by real-time PCR after the isolation of RNA form tumors. In the animal experiment according to an example of the present invention, the mRNA changes of PD-L1, TNF-a and IFN-γ (pro-inflammatory cytokines), IL-6 (anti-inflammatory cytokine), and IRF-1 (target gene for JAK2/STAT1 signaling) were measured, and the results are shown in FIG. 11.

PD-L1 and B7H3 = PD-L1 and B7H3 expression after HDAC6 inhibitor treatment in MSI and MSS colorectal cancer cell lines; assay type: cell-based; settings: IC50 and half-IC50 concentrations; MSS cell line compared with MSI cell line; FIG. 15
Description: The IC50 values of the HDAC6 inhibitor (Nexturastat A) in three MSI colorectal cancer cell lines (DLD-1, HCT116, and MC38) and three MSS colorectal cancer cell lines (SW620, HT29, and CT26) were determined. The cells were then treated with the inhibitor at the IC50 and half-IC50 concentrations (concentration corresponding to 1/2 of the IC50 value), and the expression levels of the immune checkpoint proteins PD-L1 and B7H3 were measured.

With `Nc1cc(F)ccc1NC(=O)/C=C/c1cnn(C/C=C/c2ccccc2)c1` [RGFP966] the IC50 (DLD-1) was 119 µM, the IC50 (SW620) was 23.8 µM and the IC50 (LS513) was 43.1 µM. The PD-L1 expression (PD-L1; MSS cell lines (SW620, LS513, and CT26), compared with HDAC6 and HDAC8) was “small increases” and the PD-L1 expression (PD-L1; mouse cells) was “decrease tendency”.
For `COc1ccc(Cn2ccc3ccc(C(=O)NO)cc32)cc1` [PCI-34051], the IC50 (DLD-1) was 6.36 µM, the IC50 (SW620) was 31.8 µM and the IC50 (LS513) was 19.6 µM. For the same compound, the “PD-L1 expression at the RNA and protein levels” value (PD-L1; MSS cell lines (SW620, LS513, and CT26), FIG. 6) was “increase”.
`CCCCN(Cc1ccc(C(=O)NO)cc1)C(=O)Nc1ccccc1` [Nexturastat A] was tested, and the IC50 (DLD-1) was 10.8 µM, the IC50 (SW620) was 6.8 µM and the IC50 (CT26 [1]) was 27.1 µM. The IC50 (HT29) was 11.3 µM, the IC50 (LS513) was 26.9 µM and the “PD-L1 expression at the RNA and protein levels” value (PD-L1; MSS cell lines (SW620, LS513, HT29, and CT26), FIG. 4) was “increase”. The “body weight of the mice” value (CT26 [2]) was “not reduced”, the B7H3 expression (PD-L1 and B7H3) was “distinct increase tendencies” and the PD-L1 expression (PD-L1 and B7H3) was “distinct increase tendencies”.
